Where two headings read alike, the source gives them in different places.
Experiments:
CYP3A4 [1] = biological target: T1, CYP3A4 (Homo sapiens, UniProt P08684); assay: Determination of compound Kiapp against recombinant CYP3A4 enzyme (BFC fluorescent substrate); assay type: biochemical
Protocol: 1. Determination of compound Kiapp
A determination of the Kiapp of the compounds of the invention against recombinant CYP3A4 enzyme was performed as follows. The assay was performed in a 100 mM sodium phosphate buffer pH 7.0, 5 mM TCEP and containing 2% dimethylformamide (final concentration) upon addition of substrate and inhibitor. A typical reaction for the determination of Kiapp values was carried at room temperature in a solid black Costar u-bottom 96-well polypropylene plate. In each well, recombinant CYP3A4 enzyme (5.5 nM or 8 nM, final concentration depending on the commercial source of the enzyme) was pre-incubated in the presence of the inhibitor for at least 30 minutes in the assay buffer. When pre-incubation was completed (˜30 min), the reaction was initiated by adding NADPH (200 uM, final concentration), and 7-benzyloxy-4-(trifluoromethyl)-coumarin (BFC) (5 uM, final concentration). The oxidation of the coumarin substrate was recorded by a 96-well plate reader POLARstar (BMG LABTECH, Offenburg, Germany).
The initial reaction velocities were measured during the first 5 min of the reaction when the release of the fluorescent product is linear with time, in the absence and in the presence of various concentrations of inhibitors. For non-partial & partial inhibitors, the Kiapp values were determined by using the equation for tight-binding inhibitor developed by Morrison, J F (Morrison J F. Biochim Biophys Acta. 1969, 185: 269-86) and by Szedlaseck S E et al. (Szedlascek, S. E., Ostafe, V., Serban, M., and Vlad, M.O. Biochem. J. 1988, 254:311-312), respectively.
The fluorescent substrate BFC was purchased from Sigma (St Louis, Mo.). Two commercial sources of recombinant enzymes were used in this study: recombinant CYP3A4−b5 enzyme (Baculosomes®) was purchased from Invitrogen (Carlsbad, Calif.) and the recombinant CYP3A4+b5 enzyme (Supersomes®) was purchased from BD Biosciences (Woburn, Mass.).

CYP3A4 [2] = biological target: T1, CYP3A4; assay: Determination of IC50 against CYP3A4 by measurement of inhibition of midazolam metabolism (human liver microsomes, 1-hydroxymidazolam by LC-MS/MS); assay type: biochemical; parameters: 0.1 mg/mL human liver microsomes; conditions: 2 μM midazolam, 0.1 mg/mL human liver microsomes
Protocol: 3. Determination of IC50 Against CYP3A4 by Measurement of Inhibition of Midazolam Metabolism
This assay was performed using a standard 96 well plate design. […] The incubation substrate mix contains 2 μM midazolam, 0.1 mg/mL human liver microsomes, 1 mM NADPH, and potassium phosphate buffer (100 mM, pH 7.4). Quantitation of metabolite peak area ratio against internal standard is determined by LC-MS/MS analysis. The production of 1-hydroxymidazolam from midazolam metabolism is determined after incubation for eight minutes by comparison to a standard curve generated for the metabolite.
Samples were analyzed in the MRM mode using a Sciex API 3000 mass spectrometer (Applied Biosystems, Foster City, Calif.) with a Paradigm MS4 binary pump (Michrom BioResources Inc., Auburn, Calif.) and a LEAP CTC PAL autosampler (LEAP Technologies, Carrboro, N.C.). A Phenomenex Synergi, 4μ, Polar-RP, 10×2.0 mm column (Phenomenex, Torrance, Calif.) was used for separation with a mobile phase composition of: 0.1% formic acid in water (A) and: 0.1% formic acid in methanol (B). The following gradient was used: […]
The sample injection volume was 10 μL and flow was split post-column with 0.4 mL/min going to the mass spectrometer. Analysis was performed using the following API 3000 mass spectrometer settings: […]

[3] = Baculo. enzyme preparation, read-out: Kiapp (BFC, Baculo.)
[4] = Super. enzyme preparation, read-out: Kiapp (BFC, Super.)

T1 sequence (P08684 whole entry): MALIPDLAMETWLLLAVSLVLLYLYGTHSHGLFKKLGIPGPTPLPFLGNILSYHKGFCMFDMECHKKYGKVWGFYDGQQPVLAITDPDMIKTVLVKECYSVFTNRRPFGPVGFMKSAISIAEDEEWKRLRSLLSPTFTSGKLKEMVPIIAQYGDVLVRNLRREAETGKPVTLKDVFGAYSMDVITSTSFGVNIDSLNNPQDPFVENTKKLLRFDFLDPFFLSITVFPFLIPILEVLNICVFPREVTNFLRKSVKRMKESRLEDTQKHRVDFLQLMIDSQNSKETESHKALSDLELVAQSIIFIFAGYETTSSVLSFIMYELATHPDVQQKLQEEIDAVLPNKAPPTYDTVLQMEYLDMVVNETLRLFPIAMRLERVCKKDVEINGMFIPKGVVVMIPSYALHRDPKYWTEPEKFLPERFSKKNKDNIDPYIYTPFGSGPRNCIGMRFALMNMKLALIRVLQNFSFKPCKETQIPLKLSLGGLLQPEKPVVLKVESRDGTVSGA

Ki (CYP3A4 [1]; [3]) [nM]	Ki (CYP3A4 [1]; [4]) [nM]	IC50 (CYP3A4 [2]) [nM]	SMILES
172	21.1	36	CN(Cc1ccc(F)cc1)C(=O)c1ccccc1S(=O)(=O)Nc1cccnc1 [Example 141, N-(4-fluorobenzyl)-N-methyl-2-[(pyridin-3-ylamino)sulfonyl]benzamide]
19.6	2.7	16	COc1cncc(NS(=O)(=O)c2ccccc2C(=O)NCc2ccc(C)c(Cl)c2)c1 [Example 138, N-(3-chloro-4-methylbenzyl)-2-{[(5-methoxypyridin-3-yl)amino]sulfonyl}benzamide]
24.8	4.9	18	COc1cncc(NS(=O)(=O)c2ccccc2C(=O)NC(C)Cc2ccc(F)c(F)c2)c1 (stereo not drawn) [Example 135]
694	282	107	COCCN(C(=O)c1ccccc1S(=O)(=O)Nc1cnccc1OC)C(C)C [Example 127, N-isopropyl-N-(2-methoxyethyl)-2-{[(4-methoxypyridin-3-yl)amino]sulfonyl}benzamide]
> 1000	329	> 750	COc1cncc(NS(=O)(=O)c2ccccc2C(=O)NCC(F)(F)C(F)(F)C(F)(F)F)c1 [Example 131, N-(2,2,3,3,4,4,4-heptafluorobutyl)-2-{[(5-methoxypyridin-3-yl)amino]sulfonyl}benzamide]
136	18	14	CCOc1ccncc1NS(=O)(=O)c1ccccc1C(=O)N(C)Cc1ccccc1F [Example 124, 2-{[(4-ethoxypyridin-3-yl)amino]sulfonyl}-N-(2-fluorobenzyl)-N-methylbenzamide]
54.6	8.6	11	Cc1cncc(NS(=O)(=O)c2ccccc2C(=O)N(C)Cc2ccc(F)cc2)c1 [Example 146, N-(4-fluorobenzyl)-N-methyl-2-{[(5-methylpyridin-3-yl)amino]sulfonyl}benzamide]
111	11.8	26	CCOc1ccncc1NS(=O)(=O)c1ccccc1C(=O)N(C)Cc1ccc(F)cc1 [Example 142, 2-{[(4-ethoxypyridin-3-yl)amino]sulfonyl}-N-(4-fluorobenzyl)-N-methylbenzamide]
134	62.8	22	COCCN(C(=O)c1ccccc1S(=O)(=O)Nc1cncc(C)c1)C(C)C [Example 130, N-isopropyl-N-(2-methoxyethyl)-2-{[(5-methylpyridin-3-yl)amino]sulfonyl}benzamide]
67.8	11.6	18	COc1cncc(NS(=O)(=O)c2ccccc2C(=O)NCc2c(Cl)cccc2Cl)c1 [Example 133, N-(2,6-dichlorobenzyl)-2-{[(5-methoxypyridin-3-yl)amino]sulfonyl}benzamide]

The remaining lines, values behind:

SMILES	Ki (CYP3A4 [1]; [3]) [nM]	Ki (CYP3A4 [1]; [4]) [nM]	IC50 (CYP3A4 [2]) [nM]
COc1cncc(NS(=O)(=O)c2ccc(OC)cc2C(=O)NCc2ccc(F)cc2)c1 [Example 111, N-(4-fluorobenzyl)-5-methoxy-2-{[(5-methoxypyridin-3-yl)amino]sulfonyl}benzamide]	27.3	6.8	10
CC[C@@H](C)NC(=O)c1ccccc1S(=O)(=O)Nc1cncc(OC)c1 [Example 101, 2-{[(5-methoxypyridin-3-yl)amino]sulfonyl}-N-[(1R) -1-methylpropyl]benzamide]	244	54.8	26
COc1ccncc1NS(=O)(=O)c1ccccc1C(=O)N[C@H](C)C(C)C [Example 112, N-[(1R)-12-dimethylpropyl]-2-{[(4-methoxypyridin-3-yl)amino]sulfonyl}benzamide]	438	119	46
CCC(C)NC(=O)c1ccccc1S(=O)(=O)Nc1cncc(C)c1 (stereo not drawn) [Example 121, N-(sec-butyl)-2-{[(5-methylpyridin-3-yl)amino]sulfonyl}benzamide]	490	71.2	31
COc1ccncc1NS(=O)(=O)c1ccccc1C(=O)N[C@@H](C)C(C)C [Example 108]	506	115	98
Cc1cncc(NS(=O)(=O)c2ccccc2C(=O)NCc2ccc(C#N)cc2Cl)c1 [Example 91, N-(2-chloro-4-cyanobenzyl)-2-{[(5-methylpyridin-3-yl)amino]sulfonyl}benzamide]	58	17.2	18
CCC(C)NC(=O)c1ccccc1S(=O)(=O)Nc1cnccc1OC (stereo not drawn) [Example 120, N-(sec-butyl)-2-{[(4-methoxypyridin-3-yl)amino]sulfonyl}benzamide]	487	140	86
CCC(C)(C)NC(=O)c1ccccc1S(=O)(=O)Nc1cnccc1OC [Example 106, N-(1,1-dimethylpropyl)-2-{[(4-methoxypyridin-3-yl)amino]sulfonyl}benzamide]	345	87.5	51
Cc1cncc(NS(=O)(=O)c2ccccc2C(=O)NCc2ccc3c(c2)CCO3)c1 [Example 94, N-(2,3-dihydro-1-benzofuran-5-ylmethyl)-2-{[(5-methylpyridin-3-yl)amino]sulfonyl}benzamide]	182	25.7	16
CCC(C)CNC(=O)c1ccccc1S(=O)(=O)Nc1cnccc1OC (stereo not drawn) [Example 116, 2-{[(4-methoxypyridin-3-yl)amino]sulfonyl}-N-(2-methylbutyl)benzamide]	317	50.9	33
Cc1cncc(NS(=O)(=O)c2ccccc2C(=O)NC(C(C)C)C(C)C)c1 [Example 92, N-(1-isopropyl-2-methylpropyl)-2-{[(5-methylpyridin-3-yl)amino]sulfonyl}benzamide]	45.7	17.5	22
CCOc1ccncc1NS(=O)(=O)c1ccccc1C(=O)N[C@H](C)C(C)C [Example 110, N-[(1R)-12-dimethylpropyl]-2-{[(4-ethoxypyridin-3-yl)amino]sulfonyl}benzamide]	156	50.4	26
CCN(C(=O)c1ccccc1S(=O)(=O)Nc1cncc(OC)c1)C(C)C [Example 109, N-ethyl-N-isopropyl-2-{[(5-methoxypyridin-3-yl)amino]sulfonyl}benzamide]	213	37.2	35
Nc1cncc(NS(=O)(=O)c2ccccc2C(=O)NCc2ccc(F)c(F)c2)c1 [Example 117, 2-{[(5-aminopyridin-3-yl)amino]sulfonyl}-N-(34-difluorobenzyl)benzamide]	159	14.8	20
COCCN(C(=O)c1ccccc1S(=O)(=O)Nc1cncc(N)c1)C(C)C [Example 114, 2-{[(5-aminopyridin-3-yl)amino]sulfonyl}-N-isopropyl-N-(2-methoxyethyl)benzamide]	466	105	134
CC[C@H](C)NC(=O)c1ccccc1S(=O)(=O)Nc1cncc(OC)c1 [Example 102, 2-{[(5-methoxypyridin-3-yl)amino]sulfonyl}-N-[(1S) -1-methylpropyl]benzamide]	375	56	55
CCOc1ccncc1NS(=O)(=O)c1ccccc1C(=O)NC(C)(C)CC [Example 105, N-(1,1-dimethylpropyl)-2-{[(4-ethoxypyridin-3-yl)amino]sulfonyl}benzamide]	83.1	28.6	21
CCOc1ccncc1NS(=O)(=O)c1ccccc1C(=O)NC(C)CC (stereo not drawn) [Example 119, N-(sec-butyl)-2-{[(4-ethoxypyridin-3-yl)amino]sulfonyl}benzamide]	249	71.2	45

From US7868026B2, “Therapeutic compounds” (Pfizer Inc., priority 2005, dated 2011)
